Assay: gradient 5% acetonitrile 3 min, to 50% in 2 min, to 85% in 15 min, held 3 min, 100 µL/min
Settings: column: Zorbax Extend-C18 2.1 x 50 mm; eluents: water / acetonitrile, 0.1% formic acid
In short: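 Values are retention times taken from adduct peaks that software picked and an analyst inspected. The pure standards were run as mixtures of ~100 molecules on HPLC linked to a quadrupole time-of-flight mass spectrometer, in positive and negative ionization mode. A Zorbax Extend-C18 column (2.1 × 50 mm, 1.8 μm) was used at 100 μL/min with water and acetonitrile, each including 0.1% formic acid.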

Row | Structure (SMILES) | RP-LC retention time [s]
1 | Cc1cccc(N2CCN(C(=O)C3CCN(c4ncnc5c4oc4ccccc45)CC3)CC2)c1C | 1030
2 | COc1ccc(-c2nnc(CC(=O)NCc3ccccn3)o2)cc1 | 588
3 | COCCCNC(=O)C1(C)CCC(=O)N1CCc1c[nH]c2ccccc12 (centres undefined) | 668
4 | COc1ccc2oc(-c3noc(CNC(C)=O)n3)c(C)c2c1 | 750
5 | CCSc1nnc(NC(=O)C2CCN(S(=O)(=O)c3cn(CC)cn3)CC2)s1 | 715
6 | CC(=O)N1C[C@@H](C(=O)NCCCc2c(C)noc2C)[C@H](c2nc(C)no2)C1 | 626
7 | COc1ccccc1NC(=O)N1CCCC1c1c(C)noc1C (centres undefined) | 797
8 | COc1ccc(NC(=O)Cn2ccnc2-c2ccnc(N3CCOCC3)c2)c(OC)c1 | 613
9 | COc1ccc(S(=O)(=O)N(C)C2CCc3nn(CC4CC4)c(=O)n3CC2)cc1OC (centres undefined) | 731
10 | CCOC(=O)Cc1csc(NC(=O)c2cc3cc([N+](=O)[O-])ccc3s2)n1 | 925
11 | O=C(NCCCN1CCCC1=O)c1ccc(-n2nnc3cccnc32)cc1 | 637
12 | Cc1ccc(N2CCN(S(=O)(=O)c3ccc(-c4nnc(C5CC5)o4)o3)CC2)cc1 | 1040
13 | CCN1c2ccc(C)cc2C(=O)NC12CCN(C(=O)c1ccc(Cl)cc1)CC2 | 858
14 | CCOc1ccc(-n2c(=O)c3sccc3n(Cc3nc(-c4ccccc4C)no3)c2=O)cc1 | 1070
15 | Cc1cnc(-c2cccnc2)n1CC1CNC1 | 508
16 | NS(=O)(=O)c1ccc(CCNC(=O)c2ccc(=O)[nH]n2)cc1 | 542
17 | Cc1cccc(NC(=O)N2CCC3(CC2)NC(=O)c2ccccc2N3C)c1 | 616
18 | CC(=O)N(Cc1nn(C)c2c1CN(S(=O)(=O)c1ccccc1)CC2)c1ccccc1 | 766
19 | O=C(c1cnccn1)N1[C@H]2CC[C@@H]1c1cnc(-c3ccc(F)cc3)nc1C2 | 810
20 | [N-]=[N+]=Nc1ccc2c(c1)Sc1ccccc1N2CCCCN1CCN(Cc2ccc(C(=O)c3ccccc3)cc2)CC1 | 1040
21 | CC1CCCN(S(=O)(=O)c2ccc(-c3nnc(C4CCC4)o3)o2)C1 (centres undefined) | 1010
22 | Cc1cc(F)ccc1NC(=O)Cn1c(=O)cc(-c2nc(C(C)C)no2)c2ccccc21 | 996
23 | COc1ccccc1N1CCN(c2ccnc(SCC(=O)Nc3ccccc3C)n2)CC1 | 666

Row | Structure (SMILES) | RP-LC retention time [s]
24 | Cc1nn(-c2ccccc2)c(C)c1S(=O)(=O)N1CCC(C(=O)NC2CCCCCCC2)CC1 | 1050
25 | CCCSCCCNC(=O)c1cc2n(n1)CCCN(Cc1ccccc1)C2=O | 878
26 | CN(C)[C@@H]1CN(Cc2ccccc2C#N)C[C@H]1CO | 518
27 | CCOc1ccc(CC(=O)N2CCCC2c2cc(C)on2)cc1 (centres undefined) | 822
28 | O=C(C1CCN(c2ccc3nncn3n2)CC1)N1CCN(c2ncccn2)CC1 | 604
29 | O=C(CN1C(=O)c2ccccc2C1=O)Oc1ccc2nc(N3CCCCC3)sc2c1 | 923
30 | Cc1ccc(C(=O)N2CCCC(COc3ccc(C(=O)NC4CC4)cc3)C2)cc1F (centres undefined) | 849
31 | Cc1cc(C)n(CCC(=O)N2CC[C@@H]3CN(S(C)(=O)=O)[C@@H]3C2)n1 | 594
32 | COc1cccc(Cc2nc(Cn3c(C)nc4ccccc4c3=O)no2)c1 | 812
33 | COc1cccc(N2C(=O)NC3CC2(C)Oc2ccc(OC)cc23)c1 (centres undefined) | 787
34 | CN(CC1(C)CCOCC1)C(=O)NC1CCCCC1 | 749
35 | CCOC(=O)CCNC(=O)N1CCOc2ccc(N(C)C)cc2C1 | 583
36 | CC(=O)NCc1ccc(-c2noc(-c3cc(F)ccc3Cl)n2)s1 | 879
37 | Cc1ccccc1NS(=O)(=O)c1c(C)c(-c2nnc(C3CCC3)o2)n(C)c1C | 966
38 | CCOc1ccc(C2c3[nH]c4ccccc4c3CCN2C(=O)COC)cc1 (centres undefined) | 981
39 | COC(=O)c1nnn(-c2ccc(Cl)cc2)c1C(=O)OC | 908
40 | O=S(=O)(c1ccc(-c2noc(-c3ccc(F)c(F)c3)n2)cc1)N1CCOCC1 | 1110
41 | COc1ccc(Cl)c2c(=O)c3c([nH]c12)CCN(CC(=O)Nc1cccc(C)c1)C3 | 627
42 | CCOc1ccc(Cc2nc(-c3cccc(-c4ccnn4C)c3)no2)cc1OCC | 1090
43 | COc1ccc(Cl)cc1N1CC(c2nc3ccccc3n2CCN2CCOCC2)CC1=O (centres undefined) | 617
44 | O=C(Cc1c(F)cccc1Cl)N1CCN(c2cc(-c3cccs3)[nH]n2)CC1 | 840
45 | O=C(CN1CCN(Cc2ccc(F)cc2)C1=O)NCCc1cccs1 | 776
46 | CCOc1ccc(-n2c(=O)c3sccc3n(Cc3nc(-c4ccc(CC)cc4)no3)c2=O)cc1 | 1170

Row | Structure (SMILES) | RP-LC retention time [s]
47 | COc1ccccc1CNC(=O)CN1CCN(Cc2cccc(Cl)c2)C1=O | 848
48 | O=C(c1ccc2ccccc2n1)N1CCN(c2cc(-c3cccs3)[nH]n2)CC1 | 752
49 | CC1=NOC(C)(CNC(=O)NC(C)(C)C)C1 (centres undefined) | 627
50 | Cc1ccccc1-c1noc(Cn2cnc3c(oc4ccccc43)c2=O)n1 | 986
51 | Cc1ccccc1NC(=O)c1cn(CC2CCCO2)cc2c(=O)n(-c3ccccc3)nc1-2 (centres undefined) | 943
52 | Cc1ccn2cc(-c3ccc(NS(=O)(=O)c4ccc(C)c(C)c4)cc3)nc2n1 | 682
53 | Cc1ccc(CNC(=O)NC2CCN(c3nc4cccnc4n(C)c3=O)CC2)cc1 | 860
54 | O=C(NCCc1ccccn1)C1(CCO)CCN(c2ncccn2)C1 (centres undefined) | 526
55 | CC(C)n1c(N2CCN(C(=O)c3cc4ccccc4[nH]3)CC2)cc(=O)n(C(C)C)c1=O | 915
56 | COc1ccc(-c2csc(NC(=O)CS(=O)(=O)c3ccc(Cl)cc3)n2)c(OC)c1 | 1020
57 | Cc1ccc(NC(=O)Cn2cnc(C)c(C)c2=O)cc1F | 630
58 | CCn1cc(-c2ccncc2)cc1C(=O)NCc1ccc(SC)cc1 | 689
59 | O=C(NC1CCCCC1)C(c1ccc(Cl)cc1)N1CCN(C(=O)c2ccco2)CC1 (centres undefined) | 773
60 | O=C(NCCc1c[nH]c2ccc(Cl)cc12)C1CCN(c2ccncc2)CC1 | 643
61 | Cc1ccc(-c2csc(-n3nc(C)c(CC(=O)Nc4ccc(C)cc4C)c3C)n2)cc1 | 1260
62 | O=C(NC1CCCC1)C1CCc2sc(C(=O)N3CCCC3)cc2C1 (centres undefined) | 777
63 | Cc1ccc(CNC(=O)c2nnc(-c3oc4c(C)cccc4c3C)o2)o1 | 1140
64 | CCc1nnc(-c2cn(CC(=O)Nc3ccc4c(c3)OCCO4)c3ccccc23)o1 | 817
65 | O=C(Cc1ccccc1Cl)N1CCN(c2cc(-c3cccs3)[nH]n2)CC1 | 819
66 | CCOc1cc(=O)n2c(c1C(=O)Nc1cc(C)cc(C)c1)CCCC2 | 791
67 | O=C(CCc1ccccc1)NC1CCN(c2nnc3ccccn23)CC1 | 633
68 | CC1CCCCN1CCCNC(=O)CN1C(=O)c2ccccc2Sc2ncccc21 (centres undefined) | 661
69 | Cc1cccc(N2CCN(Cc3nc(-c4ccc(N5CCCCC5)nc4)no3)CC2)c1C | 1160

Row | Structure (SMILES) | RP-LC retention time [s]
70 | CS(=O)(=O)N1CCC(C(=O)Nc2ccc(F)cc2)Oc2ccccc21 (centres undefined) | 817
71 | O=C(Cc1csc(NC(=O)c2ccco2)n1)Nc1ccc2c(c1)OCCO2 | 670
72 | O=C(NCc1cccc(Cl)c1)C1CCc2nc(N3CCOCC3)ncc2C1 (centres undefined) | 726
73 | Cc1ccc2[nH]cc(CCN3CC(C(=O)NCCN4CCOCC4)CC3=O)c2c1 (centres undefined) | 602
74 | Cc1ccc(-c2nnc(-c3nn(C)c4c3CN(S(=O)(=O)c3ccccc3C)CC4)o2)cc1 | 1020
75 | CC(C)NC(=O)c1cccc(N2C(=O)NC3CC2(C)Oc2ccc(Br)cc23)c1 (centres undefined) | 793
76 | CN(C)C(=O)c1ccc2c(c1)N(CC(=O)NC1CCCCCCC1)C(=O)CS2 | 769
77 | CC1CCCCN1S(=O)(=O)c1ccc2nc(N3CCN(c4ccccc4)CC3)ccc2c1 (centres undefined) | 1100
78 | Cc1nc(Cn2cccc2C(=O)Nc2cccc(C#N)c2)no1 | 798
79 | COc1ccc(C(C)NC(=O)c2cn3cc(C)ccc3n2)cc1OC (centres undefined) | 630
80 | CC1=C(c2ccc(F)cc2)S(=O)(=O)N=C1N1CCCN(C(=O)c2cccs2)CC1 | 806
81 | O=C(NCc1csc(-c2cccs2)n1)C1CCN(C(=O)CCC2CCCC2)CC1 | 878
82 | Cc1ccc(N2CC(C(=O)NCc3nn(C)c4ccccc34)CC2=O)cc1 (centres undefined) | 782
83 | Cc1ccc(CN2CC(Oc3ccc(-c4noc(-c5cccnc5)n4)cc3)C2)o1 | 691
84 | COc1ncccc1CN(C)C(=O)COc1ccccc1 | 568
85 | CCNC(=O)N(CCCOC)CC(=O)N1CCc2sccc2C1COc1ccc(Cl)c(C)c1 (centres undefined) | 965
86 | COC(=O)c1cccc(Nc2c(-c3ccc(SC)cc3)nc3cnccn23)c1 | 887
87 | Cn1nc(-c2nc(C3CC3)no2)c2c1CCN(C(=O)Nc1cccc(F)c1)C2 | 840
88 | O=S(=O)(c1ccc(-c2nnc(C3CCCC3)o2)o1)N1CCN(C2CCCCC2)CC1 | 696
89 | Cc1ccccc1S(=O)(=O)NC1CCN(c2ccc(=O)n(C)n2)C1 (centres undefined) | 705
